The values that follow come from patent US20240174693A1, “SOMATOSTATIN RECEPTOR SUBTYPE 4 (SSTR4) AGONISTS AND THEIR APPLICATIONS” (Humanwell Pharmaceutical US, priority 2022, published 2024).

For one data set, the system named is SD rats. Kind of data set: SD rat carrageenan acute inflammation model. As to conditions: SD rat carrageenan. The format is in vivo. As to the method:
Using an electronic caliper for accuracy, the thickness of the rat's footpad was measured. Rats were then restrained, and 100 μl of 1% carrageenan was subcutaneously injected into the right hind footpad to induce inflammation, thereby establishing an acute inflammation model using carrageenan. Each compound was administered in advance according to the respective dosing time points. The swelling of the rat's foot was measured at various time points: before modeling (0 h) and after modeling (2, 4, 7 h). A comparison was made between footpad swelling before and after modeling. […] The results of the carrageenan-induced acute inflammation model experiment are depicted in FIG. 1.

The target in the next data set is T1, SSTR4 (Homo sapiens, UniProt P31391).
T1 construct: host or cells: HEK293/Gα15/SSTR4
Kind of data set: FLIPR assay for agonists, HEK293/Gα15/SSTR4 cells. In kind it is cell-based. As to conditions: read-out: SSTR4 Agonist Activity in FLIPR Assay EC50.

In a further data set the test system is KM mice. Kind of data set: Acetic acid induced writhing test. The format is in vivo. As to conditions: 30 mg/kg s.c.; for No. of writhing's: 0.6% acetic acid 15 min after dosing, 30-minute period; for Percentage of Inhibition / Significant compared to the model group: writhing. As for the experimental part:
Fifteen minutes after administration, a 0.6% acetic acid solution (5 mL/kg) was injected into the abdominal cavity. The mice were then placed in an observation box, and the number of writhing episodes was recorded within a 30-minute period. The assessment of pain intensity was based on the observation of the mice's writhing behavior.
On the technique in general: An intraperitoneal irritant provokes the stretching counted in writhing tests.

A further data set can be described thus: In vivo PK study. As to conditions: po, 3 mg/kg p.o.

T1 sequence (P31391 whole entry): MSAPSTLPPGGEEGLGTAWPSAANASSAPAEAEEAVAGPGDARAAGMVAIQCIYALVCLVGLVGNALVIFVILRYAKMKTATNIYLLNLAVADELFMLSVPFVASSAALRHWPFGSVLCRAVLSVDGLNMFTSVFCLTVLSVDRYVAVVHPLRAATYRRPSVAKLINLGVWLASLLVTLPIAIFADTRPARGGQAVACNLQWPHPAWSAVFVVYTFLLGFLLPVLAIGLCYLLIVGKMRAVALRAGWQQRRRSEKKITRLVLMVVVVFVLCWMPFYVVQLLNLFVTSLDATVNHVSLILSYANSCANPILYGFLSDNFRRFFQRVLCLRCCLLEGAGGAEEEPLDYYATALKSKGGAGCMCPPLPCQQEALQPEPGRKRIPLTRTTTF
Protocol for SSTR4: The study was carried out at HD Biosciences (Shanghai, China) according to the following steps.
Step 1: Test compounds were diluted to a 400×stock solution in DMSO in a 384-well plate.
Step 2: 1 μL of the compound solution was transferred from Step 1 to 79 μL of assay buffer, creating a 5×working solution in the 384-well plate using the Bravo method.
Step 3: HEK293/Gα15/SSTR1-5 cells were cultured in DMEM medium (10% FBS).
Step 4: When cells reached 80% confluence, the cells were separated using 0.25% trypsin-EDTA.
Step 5: The cell density was measured and the cells diluted to 1×10^6/mL using DMEM (10% FBS).
Step 6: 30 μL of cells were dispensed into each well of a Matrigel-coated 384-well plate (Corning 3764#) using a multi-channel pipette (30,000 cells per well) and cultured for 20-24 hours at 37° C. and 5% CO2.
Step 7: 10 μL of dye was added to each well in the cell plate prepared in Step 6.
Step 8: The dye and cells were incubated in the dark at 37° C. and 5% CO2 for 1 hour.
Step 9: After 1 hour, the FLIPR program was loaded, the pipette tips placed cell plate and compound plate (from Step 2) into the machine, and the run button was pressed. The program added 10 μL to 40 μL to the cell plate. FLIPR was used to read the plate at room temperature according to the specified settings and the data was saved.

As to `CC(=O)Oc1ccccc1C(=O)O` [Aspirin], the “Changes in Foot Swelling Rate (Mean ± SEM)” value was determined as 0% in the data set with SD rats (0 h (before modeling)), 33.44 ± 4.56% in the data set with SD rats (2 h after modeling), 24.42 ± 6.86% in the data set with SD rats (4 h after modeling) and 19.72 ± 3.24% in the data set with SD rats (7 h after modeling). For the same molecule, the “Foot Swelling Degrees (Mean ± SEM)” value came out at 4.08 ± 0.10 mm in the data set with SD rats (0 h (before modeling)), 5.42 ± 0.11 mm with SD rats (2 h after modeling), 5.05 ± 0.21 mm in the data set on SD rats (4 h after modeling) and 4.87 ± 0.07 mm in the data set on SD rats (7 h after modeling).
Usually EC50 stands for the concentration at which the effect is half-maximal. `CC(C)(NC(=O)[C@@H]1[C@@H]2CNC[C@H]1C2)c1ncc2c(Br)cccn12` [Compound 3, (1R,5S,6s)-N-(2-(8-bromoimidazo[1,5-a]pyridin-3-yl)propan-2-yl)-3-azabicyclo[3.1.1]heptane-6-carboxamide]: the EC50 on SSTR4 was above 1000 nM.
As to `COc1ccc(-c2cccn3c(C(C)(C)NC(=O)[C@H]4[C@@H]5CNC[C@H]4C5)ncc23)cc1` [Compound 12, (1R,5S,6r)-N-(2-(8-(4-methoxyphenyl)imidazo[1,5-a]pyridin-3-yl)propan-2-yl)-3-azabicyclo[3.1.1]heptane-6-carboxamide], in the data set with KM mice, the “No. of writhing's” value is 10, the “Percentage of Inhibition” value was 54.16% and the “Significant compared to the model group” value is on record as “Yes”.
The matching figures for `CC(C)(NC(=O)[C@@H]1[C@@H]2C[C@H]1CN(C(=N)N)C2)c1ncc2c(Cl)cccn12` [Compound 21, (1R,5S,6r)-3-carbamimidoyl-N-(2-(8-chloroimidazo[1,5-a]pyridin-3-yl)propan-2-yl)-3-azabicyclo[3.1.1]heptane-6-carboxamide]: 9, 71% and “Yes”.
One may read the AUC(0-t) as exposure summed from dosing to a finite time, without extrapolation to infinity. Read a low AUC(0-t) as low exposure. The Cmax is the peak of the concentration-time curve. For orientation: MRT inf means a mean duration of stay, worked out from the concentration-time curve. As usually defined, the Tmax is the time from dosing to the highest level. Regarding `CC(C)(NC(=O)[C@@H]1[C@@H]2C[C@H]1CN(C(=N)N)C2)c1nc(C2CC2)c2ccccn12` [Compound 22, (1R,5S,6r)-3-carbamimidoyl-N-(2-(1-cyclopropylimidazo[1,5-a]pyridin-3-yl)propan-2-yl)-3-azabicyclo[3.1.1]heptane-6-carboxamide], in the data set “In vivo PK study”, the AUC(0-t) was determined as 1.3 ng·h/mL, the highest level (Cmax) was 5.56 ng/mL, the MRT inf was found to be 11.4 min and the Tmax worked out at 11.4 min. In the data set with KM mice, the “No. of writhing's” value was 7 ± 2, the “Percentage of Inhibition” value came to 82.45 ± 5.13% and the “Significant compared to the model group” value is “Yes”.
For `CC(C)C[C@H](CN)CC(=O)O` [Pregabalin], the “Changes in Foot Swelling Rate (Mean ± SEM)” value in the data set with SD rats (0 h (before modeling)) is listed as 0%; in the data set with SD rats (2 h after modeling) it was 41.54 ± 1.45%; in the data set on SD rats (4 h after modeling), 35.68 ± 2.85%; in the data set with SD rats (7 h after modeling), 37.64 ± 2.63%. In addition, the “Foot Swelling Degrees (Mean ± SEM)” value in the data set with SD rats (0 h (before modeling)) is listed as 4.06 ± 0.07 mm; with SD rats (2 h after modeling) it was 5.74 ± 0.09 mm; in the data set with SD rats (4 h after modeling), 5.49 ± 0.09 mm; in the data set on SD rats (7 h after modeling), 5.58 ± 0.13 mm.
